Laboratory results taken from patent US6365623B1, “Treatment of acne using lipoic acid” (priority 1997, dated 2002).
“And” between values parts separate entries of the source, which are not always exact repeats. Equal values may be shown once.

Key:
[1] = tested on: patients with acne vulgaris and/or acneiform scars; assay: Clinical study of 5% lipoic acid cream applied to the face, assessed by a dermatologist; type: in vivo, human
Protocol: The following examples are presented to further illustrate and explain the present invention and should not be taken as limiting in any regard. Unless otherwise indicated, all percentages are by weight. Lipoic acid was supplied by the Henkel Corporation and was placed into a lecithin-based oil-in-water cream at a level of 5% for use by acne patients. This composition was used in the studies unless otherwise indicated.
Eight patients with acne vulgaris and/or acneiform scars were evaluated and photographed at the beginning of the study. The patients were asked to cleanse their faces with Cetaphil™ lotion twice daily, and then to apply the test lipoic acid composition. Clinical evaluations were made every four weeks thereafter. Photographs were retaken at the end of twelve weeks, and five patients continued treatment for up to a year.
The following parameters were reported in clinical assessments by a dermatologist in the follow-up evaluations:
1. visibly apparent changes in erythema
2. visibly apparent changes in pore size

[2] = tested on: affected skin areas; assay: Adverse side effects in clinical studies to date (topical application); type: in vivo, human
Excerpt: Generally in the practice of the method of the invention, the composition is topically applied to the affected skin areas in a predetermined or as-needed regimen either at intervals by application of a lotion or the like, it generally being the case that gradual improvements is noted with each successive application.

[3] = Skin penetration after topical application; type: in vivo; details: four hours after application to skin
Excerpt: While not wishing to be bound to any theory, it is possible that lipoic acid is efficacious in the treatment of acne because it is both fat- and water-soluble and readily disperses in cell membranes and other cellular components. […] Because of its solubility, it is sometimes referred to as a universal antioxidant. It acts as a free radical scavenger and neutralizer, and prevents the cross-linking of cell membranes that is often seen in acne in its post-inflammatory phases. By the same token, LA modulation of free radicals and other oxidative species affects gene expression, including expression of nuclear factor κ-B (NF-κB), nitric oxide synthetase and other mediators at all stages of proinflammation and inflammation. Lipoic acid's alteration of lipid peroxidation, protein cross-linking, growth factor stimulation, and membrane permeability may explain its negative effect on the symptoms of acne.

[4] = 5% lipoic acid in lecithin-based oil-in-water cream, topical twice daily, one value per patient (Pt. #1-#8)

SMILES: O=C(O)CCCCC1CCSS1 (centres unmarked) [lipoic acid, 1,2-dithiolane-3-pentanoic acid]
- improvement in two patients with severe atrophic acne scars ([1]; 5% cream, topical twice daily): 80%
- improvement of atrophic scars, all patients with atrophic scars ([1]; 5% cream, topical twice daily): improved
- change in pustules, papules, and comedones ([1]; 5% cream, within three to four weeks, benefits continued to increase over three to four months): marked decrease
- Erythema % Improvement [1, 4]: 80% (3×) and 50% (5×)
- Pore Size % Improvement [1, 4]: 50% (3×) and 90% (5×)
- Scar Depth % Improvement [1, 4]: 50% (4×) and 80% (2×) and 70% (2×)
- adverse side effects [2]: no adverse side effects
- concentration in sebaceous gland tissue [3]: high concentrations
